Laboratory results: patent US20100267561A1, “HERBICIDAL PYRIDAZINONE DERIVATIVES” (priority 2007, published 2010)

Columns and labels:
Format in all cases: in vivo
[1] = system: giant foxtail (Setaria faberi); assay: Test A pre-/postemergence plant response
In short: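 Seeds were planted in blended loam soil and sand, then treated preemergence by directed soil spray. At that time, emerged plants (one- to two-leaf, 2–10 cm) received postemergence applications of the same surfactant-containing formulation. Injury was assessed visually on a 0–100 scale after approximately 10 days.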

[2] = system: bermudagrass (Cynodon dactylon); assay: Test B pre-/postemergence plant response; conditions: for Bermudagrass plant response rating: 8 g ai/ha
In short: (§1)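 Seeds were sown and sprayed preemergence, while plants at 2 to 18 cm (1- to 4-leaf stage) got postemergence sprays. Compounds were formulated in a non-phytotoxic solvent mixture with surfactant. After 13 to 15 days in a greenhouse, injury was rated visually against untreated controls, 0 (no effect) to 100 (complete control).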

[3] = system: blackgrass (Alopecurus myosuroides); assay: Test B pre-/postemergence plant response; conditions: for Blackgrass plant response rating: 8 g ai/ha
In short: as §1

[4] = system: wheat (Triticum aestivum); assay: Test B pre-/postemergence plant response; conditions: for Wheat plant response rating: 8 g ai/ha
In short: as §1

[5] = system: downy bromegrass (Bromus tectorum); assay: Test B pre-/postemergence plant response; conditions: for Bromegrass, Downy plant response rating: 8 g ai/ha
In short: as §1

[6] = system: velvetleaf (Abutilon theophrasti); assay: Test B pre-/postemergence plant response; conditions: for Velvetleaf plant response rating: 8 g ai/ha
In short: as §1

[7] = system: johnsongrass (Sorghum halepense); assay: Test B pre-/postemergence plant response; conditions: for Johnsongrass plant response rating: 8 g ai/ha
In short: as §1

[8] = system: common (oilseed) sunflower (Helianthus annuus); assay: Test B pre-/postemergence plant response; conditions: Preemergence
In short: as §1

[9] = system: giant foxtail (Setaria faberii); assay: Test B pre-/postemergence plant response; conditions: for Foxtail, Giant plant response rating: 8 g ai/ha
In short: as §1

soybean (Glycine max) = assay: Test B pre-/postemergence plant response; conditions: for Soybean plant response rating: 8 g ai/ha
In short: as §1

[10] = system: pigweed (Amaranthus retroflexus); assay: Test B pre-/postemergence plant response; conditions: for Pigweed plant response rating: 8 g ai/ha
In short: as §1

[11] = system: goosegrass (Eleusine indica); assay: Test B pre-/postemergence plant response; conditions: for Goosegrass plant response rating: 8 g ai/ha
In short: as §1

[12] = Postemergence, 16 g ai/ha, scale 0 to 100
[13] = Postemergence, 31 g ai/ha, scale 0 to 100
[14] = Postemergence, 62 g ai/ha, scale 0 to 100, 0 no effect, 100 complete control
[15] = Preemergence, 16 g ai/ha, scale 0 to 100 (0 no effect, 100 complete control)
[16] = Preemergence, 31 g ai/ha, 0 to 100 scale, 0 no effect, 100 complete control
[17] = Preemergence, 62 g ai/ha, scale 0 to 100
[18] = Preemergence, 31 g ai/ha, scale 0 to 100 (0 no effect, 100 complete control)
[19] = Preemergence, 62 g ai/ha, 0 to 100 scale, 0 no effect, 100 complete control

Cc1cc(-c2ccc(Cl)cc2)nn1-c1c(OC(=O)c2ccccc2)cnn(C)c1=O [Compound 48] was tested, and the “Plant response rating, Foxtail, Giant” value ([1]; Postemergence, 31 g ai/ha, 0 to 100 scale (0 no effect, 100 complete control)) was 30, the “Plant response rating, Foxtail, Giant” value ([1]; Postemergence, 125 g ai/ha, 0 to 100 scale, 0 no effect, 100 complete control) was 80 and the “Plant response rating, Foxtail, Giant” value ([1]; Preemergence, 31 g ai/ha, 0 to 100 scale, 0 is no effect, 100 is complete control) was 90. The “Plant response rating, Foxtail, Giant” value ([1]; Preemergence, 125 g ai/ha, 0 to 100 scale (0 no effect, 100 complete control)) was 100, the “Bermudagrass plant response rating” value ([2]; postemergence, 0-100 scale) was 65 and the “Plant response rating, Bermudagrass” value [2, 12] was 98. The “Plant response rating, Bermudagrass” value [2, 13] was 100, the “Plant response rating, Bermudagrass” value [2, 14] was 100 and the “Bermudagrass plant response rating” value ([2]; Preemergence, scale 0 to 100 (0 no effect, 100 complete control)) was 0. The “Plant response rating, Bermudagrass” value [2, 15] was 0, the “Plant response rating, Bermudagrass” value [2, 16] was 0 and the “Plant response rating, Bermudagrass” value [2, 17] was 0. For the same molecule, the “Blackgrass plant response rating” value ([3]; postemergence, 0-100 scale) was 40, the “Plant response rating, Blackgrass” value [3, 12] was 85 and the “Plant response rating, Blackgrass” value [3, 13] was 85. For the same molecule, the “Plant response rating, Blackgrass” value [3, 14] was 95, the “Plant response rating, Blackgrass” value [3, 15] was 90 and the “Plant response rating, Blackgrass” value [3, 16] was 90. For the same molecule, the “Plant response rating, Blackgrass” value [3, 17] was 100, the “Blackgrass plant response rating” value ([3]; Preemergence, scale 0 to 100) was 80 and the “Wheat plant response rating” value ([4]; postemergence, 0-100 scale) was 0. For the same molecule, the “Plant response rating, Wheat” value [4, 12] was 50, the “Plant response rating, Wheat” value [4, 13] was 95 and the “Plant response rating, Wheat” value [4, 14] was 98. For the same molecule, the “Plant response rating, Wheat” value [4, 15] was 0, the “Plant response rating, Wheat” value [4, 18] was 5 and the “Plant response rating, Wheat” value [4, 19] was 60. For the same molecule, the “Wheat plant response rating” value ([4]; Preemergence, scale 0 to 100) was 0, the “Bromegrass, Downy plant response rating” value ([5]; postemergence, 0-100 scale) was 5 and the “Plant response rating, Bromegrass, Downy” value [5, 12] was 50. The “Plant response rating, Bromegrass, Downy” value [5, 13] was 60, the “Plant response rating, Bromegrass, Downy” value [5, 14] was 90 and the “Plant response rating, Bromegrass, Downy” value [5, 15] was 0. The “Plant response rating, Bromegrass, Downy” value [5, 16] was 70, the “Plant response rating, Bromegrass, Downy” value [5, 17] was 80 and the “Bromegrass, Downy plant response rating” value ([5]; Preemergence, scale 0 to 100) was 0. The “Velvetleaf plant response rating” value ([6]; postemergence, 0-100 scale) was 0, the “Plant response rating, Velvetleaf” value [6, 12] was 0 and the “Plant response rating, Velvetleaf” value [6, 13] was 0. For the same molecule, the “Plant response rating, Velvetleaf” value [6, 14] was 0, the “Plant response rating, Velvetleaf” value [6, 15] was 0 and the “Plant response rating, Velvetleaf” value [6, 18] was 0. For the same molecule, the “Plant response rating, Velvetleaf” value [6, 19] was 0, the “Velvetleaf plant response rating” value ([6]; Preemergence, scale 0 to 100) was 0 and the “Johnsongrass plant response rating” value ([7]; postemergence, 0-100 scale) was 65. The “Plant response rating, Johnsongrass” value [7, 12] was 75, the “Plant response rating, Johnsongrass” value [7, 13] was 100 and the “Plant response rating, Johnsongrass” value [7, 14] was 100. For the same molecule, the “Plant response rating, Johnsongrass” value [7, 15] was 60, the “Plant response rating, Johnsongrass” value [7, 16] was 75 and the “Plant response rating, Johnsongrass” value [7, 17] was 80. The “Johnsongrass plant response rating” value ([7]; Preemergence, scale 0 to 100) was 40, the “Plant response rating, Sunflower” value ([8]; 16 g ai/ha, scale 0 to 100 (0 no effect, 100 complete control)) was 0 and the “Plant response rating, Sunflower” value ([8]; 31 g ai/ha, scale 0 to 100 (0 no effect, 100 complete control)) was 0. For the same molecule, the “Plant response rating, Sunflower” value ([8]; 62 g ai/ha, scale 0 to 100) was 0, the “Sunflower plant response rating” value ([8]; 8 g ai/ha, scale 0 to 100) was 0 and the “Foxtail, Giant plant response rating” value ([9]; postemergence, 0-100 scale) was 85. For the same molecule, the “Plant response rating, Foxtail, Giant” value [9, 12] was 95, the “Plant response rating, Foxtail, Giant” value [9, 13] was 100 and the “Plant response rating, Foxtail, Giant” value [9, 14] was 100. For the same molecule, the “Plant response rating, Foxtail, Giant” value [9, 15] was 0, the “Plant response rating, Foxtail, Giant” value [9, 16] was 0 and the “Plant response rating, Foxtail, Giant” value [9, 17] was 0. The “Foxtail, Giant plant response rating” value ([9]; Preemergence, scale 0 to 100) was 0, the “Soybean plant response rating” value (soybean (Glycine max); postemergence, 0-100 scale) was 0 and the “Plant response rating, Soybean” value (soybean (Glycine max); [12]) was 0. The “Plant response rating, Soybean” value (soybean (Glycine max); [13]) was 0, the “Plant response rating, Soybean” value (soybean (Glycine max); [14]) was 0 and the “Plant response rating, Soybean” value (soybean (Glycine max); [15]) was 0. For the same molecule, the “Plant response rating, Soybean” value (soybean (Glycine max); [18]) was 0, the “Plant response rating, Soybean” value (soybean (Glycine max); [17]) was 0 and the “Soybean plant response rating” value (soybean (Glycine max); Preemergence, scale 0 to 100) was 0. The “Pigweed plant response rating” value ([10]; postemergence, 0-100 scale) was 0, the “Plant response rating, Pigweed” value [10, 12] was 0 and the “Plant response rating, Pigweed” value [10, 13] was 0. For the same molecule, the “Plant response rating, Pigweed” value [10, 14] was 0, the “Plant response rating, Pigweed” value [10, 15] was 0 and the “Plant response rating, Pigweed” value [10, 18] was 0. The “Plant response rating, Pigweed” value [10, 17] was 0, the “Pigweed plant response rating” value ([10]; Preemergence, scale 0 to 100) was 0 and the “Goosegrass plant response rating” value ([11]; postemergence, 0-100 scale) was 15. The “Plant response rating, Goosegrass” value [11, 12] was 65, the “Plant response rating, Goosegrass” value [11, 13] was 75 and the “Plant response rating, Goosegrass” value [11, 14] was 95. The “Plant response rating, Goosegrass” value [11, 15] was 0, the “Plant response rating, Goosegrass” value [11, 16] was 0 and the “Plant response rating, Goosegrass” value [11, 17] was 20. For the same molecule, the “Goosegrass plant response rating” value ([11]; Preemergence, scale 0 to 100) was 0.
